Laboratory results as given in patent US20030187003A1, “Pharmaceutical compositions and method for the treatment of retroviral infections” (priority 2000, published 2003).
Like-named read-outs stand apart in the source and are kept apart here.

How the values were obtained:
[1] = molecular target: IN (Human immunodeficiency virus type 1 group M subtype B, UniProt P04585); settings: background section; read-out: IC50 inhibition of IN; cited from earlier work
[2] = test system: HIV-1-derived vectors pseudotyped with the VSV-G envelope; test: microbe, parasite or virus in culture; assay type: cell-based; settings: Human immunodeficiency virus 1, HEK-293T, read-out: EC50 inhibition of lentiviral transduction
[3] = test system: HIV-2 (ROD); test: inhibition of virus-induced cytopathicity in MT-4 cells, HIV-2 (ROD); assay type: cell-based; settings: for EC50: Human immunodeficiency virus 2, MT4, 120 h, read-out: EC50 HIV-2 ROD
[4] = molecular target: T1, recombinant His-tagged HIV-1 integrase (Human immunodeficiency virus type 1 group M subtype B, UniProt P04585); test: HIV-1 integrase overall integration assay, oligonucleotide-based; settings: for inhibition of the overall integration reaction: in words
Method: (§1) Reactions were started by the addition of the enzyme. Inhibitors were incubated shortly with the reaction components before the addition of integrase. Reactions were allowed to proceed at 37° C. for 7 minutes and stopped by the addition of formamide loading buffer (95% formamide, 30 mM ethylenediamine tetraacetic acid, 0.1% xylene cyanol, 0.1% bromophenol blue, 0.1% sodium dilaurylsulfate SDS). In the overall integration assay, this reaction was allowed to proceed for 60 minutes before the addition of a formamide dye.

[5] = test system: HIV-1 L1; test: inhibition of virus-induced cytopathicity in MT-4 cells, HIV-1 clinical isolate L1; assay type: cell-based; settings: Human immunodeficiency virus 1, MT4, 120 h, read-out: EC50 HIV-1 L1
[6] = test system: HIV-1(IIIB); test: inhibition of virus-induced cytopathicity in MT-4 cells, HIV-1 (IIIB); assay type: cell-based; settings: for EC50: Human immunodeficiency virus 1, IIIB, MT4, 120 h, MT-4 cells, viral cytopathic effect, 5 days post-infection; for activity against the replication of HIV-1(IIIB): in words
[7] = molecular target: T1, recombinant His-tagged HIV-1 integrase; test: HIV-1 integrase 3′-processing assay, oligonucleotide-based; settings: for inhibition of the 3-processing reaction: in words
Method: as §1

[8] = cytotoxicity, viability of mock-infected cells; assay type: cell-based; settings: human, viability of mock-infected MT-4 cells
Method: Cytotoxicity of these compounds was determined in parallel by measuring the viability of mock-infected MT-4 or C8166 cells 5 days post-infection. The antiviral activity and cytotoxicity data, including average values and standard deviations for at least two separate experiments, are depicted in Table 2, wherein: CC50 represents the 50% cytotoxic concentration, i.e. the concentration that reduces by 50% the viability of MT-4 cells.

[9] = test system: HIV-2 (EHO); test: inhibition of virus-induced cytopathicity in MT-4 cells, HIV-2 (EHO); assay type: cell-based; settings: for EC50: Human immunodeficiency virus 2, MT4, 120 h, read-out: EC50 HIV-2 EHO
[10] = test system: SIV (MAC251); test: inhibition of virus-induced cytopathicity in MT-4 cells, SIV (MAC251); assay type: cell-based, Simian immunodeficiency virus; settings: for EC50: Simian immunodeficiency virus, MT4, 120 h, read-out: EC50 SIV MAC251
[11] = molecular target: T2, Recombinant HIV-1 RT (HXB2) (Human immunodeficiency virus type 1 group M subtype B, UniProt P04585); test: inhibition of HIV-1 reverse transcriptase enzymatic activity; assay type: biochemical
T2 construct: Recombinant HIV-1 RT (HXB2) was obtained as described by Jonckheere et al; made in house
Source text: Poly(rC).oligo(dG) and poly (rA).oligo(dT) were used as template-primers, and 8-[^3H]-dGTP and [^3H]-dTTP were used as radiolabelled substrates.

[12] = molecular target: T1, recombinant His-tagged HIV-1 integrase; test: HIV-1 integrase strand transfer assay, oligonucleotide-based
[13] = test system: HIV-1 L6; assay type: cell-based; settings: L6 versus wild type strain L1
[14] = test system: HIV-1 L2; assay type: cell-based
[15] = test system: HIV-1 L4; assay type: cell-based
[16] = MT-4 cells, viral cytopathic effect, 5 days post-infection
[17] = IC50 Poly(A).oligo(dT), template-primer poly(A).oligo(dT)
[18] = IC50 poly(C).oligo(dG), template-primer poly(C).oligo(dG)

Row | Molecule | EC50 [3, 16] [µM] | IC50 [4] [µM] | EC50 [5, 16] [µM] | EC50 [6] [µM] | IC50 [7] [µM] | CC50 at 5 days [8] [µM] | EC50 [9, 16] [µM] | EC50 [10, 16] [µM] | other results
1 | [N-]=[N+]=Nc1cn([C@H]2C[C@H](N=[N+]=[N-])[C@@H](COP(=O)(O)O)O2)c(=O)[nH]c1=O [5-N3-AZUMP, 3′,5-diazido-2′,3′-dideoxyuridine 5′-monophosphate] |  |  |  |  |  |  |  |  | IC50 [1]: 150 µM
2 | Cc1cn([C@H]2C[C@H](N=[N+]=[N-])[C@@H](CO)O2)c(=O)[nH]c1=O [AZT, reference compound] |  |  |  |  |  |  |  |  | EC50 [2]: 0.049 µM
3 | Oc1nc(O)c2c(n1)Oc1nc(O)nc(O)c1C2c1ccc(I)cc1 [A] | > 276 | > 207 | > 276 | > 276 | > 207 | > 276 | > 276 | > 276 | 
4 | Clc1nc(Cl)c2c(n1)Oc1nc(Cl)nc(Cl)c1C2c1ccccc1 [B] | > 17.5 | 25 ± 4.5 | > 17.5 | > 17.5 | 74 ± 38.5 | 17.5 | > 17.5 | > 17.5 | 
5 | Oc1nc(O)c2c(n1)Oc1nc(O)nc(O)c1C2c1ccccc1 [C] |  | 34.6 ± 11.3 |  | 170 ± 45 | 22.4 ± 6.4 | > 383 |  |  | EC50 [3]: > 383 µM; inhibition of the overall integration reaction [4]: inhibited; EC50 [5]: 116 ± 30 µM; activity against the replication of HIV-1(IIIB) [6]: active; inhibition of the 3-processing reaction [7]: inhibited; EC50 [9]: 169 ± 27 µM; IC50 [11, 17]: 33.1 ± 15.1 µM; IC50 [11, 18]: 15.1 ± 5.9 µM; IC50 [12]: 782 ± 242 µM; EC50 [10]: 194 µM
6 | COc1nc(O)nc2c1C(c1ccc([N+](=O)[O-])cc1)c1c(OC)nc(O)nc1O2 [D] | > 313 | > 250 | > 313 | > 313 | > 250 | > 313 | > 313 | > 313 | 
7 | Oc1nc(O)c2c(n1)Oc1nc(O)nc(O)c1C2c1ccc(Br)cc1 [E] |  | 298 ± 7.7 |  | 273 ± 38 | 208 ± 82.2 | > 309 |  |  | EC50 [3]: > 309 µM; inhibition of the overall integration reaction [4]: inhibited; EC50 [5]: > 309 µM; activity against the replication of HIV-1(IIIB) [6]: active; inhibition of the 3-processing reaction [7]: inhibited; EC50 [9]: > 309 µM; IC50 [11, 17]: > 494 µM; IC50 [11, 18]: > 494 µM; IC50 [12]: > 1240 µM; EC50 [10]: > 309 µM
8 | Oc1nc(O)c2c(n1)Oc1nc(O)nc(O)c1C2c1ccc(Cl)cc1 [F] | > 347 | 97.1 ± 93.8 | > 347 | > 347 | 144 ± 81.3 | > 347 | > 347 | > 347 | 
9 | Oc1nc(S)nc2c1C(c1ccc(Cl)cc1)c1c(O)nc(S)nc1O2 [G] |  | 1 ± 0.4 |  | 56.8 ± 30 | 0.9 ± 0.5 | 137 |  |  | EC50 [3]: > 137 µM; inhibition of the overall integration reaction [4]: inhibited; EC50 [5]: 101 ± 32 µM; activity against the replication of HIV-1(IIIB) [6]: active; inhibition of the 3-processing reaction [7]: inhibited; EC50 [9]: > 137 µM; fold increase in EC50 [13]: 1.8; EC50 ([14]; Human immunodeficiency virus 1): 95.6 ± 6.5 µM; fold increase in EC50 ([14]; L2 versus wild type strain L1): 0.9; IC50 [11, 17]: 35.2 ± 0.4 µM; IC50 [11, 18]: 25.8 ± 15.9 µM; IC50 [12]: 201 ± 120 µM; EC50 ([15]; Human immunodeficiency virus 1): 163 ± 3.7 µM; fold increase in EC50 ([15]; L4 versus wild type strain L1): 1.6; EC50 [10]: 100 µM
10 | Cc1ccnc2c1NC(=O)c1cccnc1N2C1CC1 [nevirapine, reference compound] | > 97.6 |  | 0.06 ± 0.01 | 0.04 |  | > 97.6 | > 97.6 | > 97.6 | activity against the replication of HIV-2 (ROD) ([3]; at 98 μM in MT-4 cells): inactive; activity against the replication of HIV-2 (EHO) ([9]; at 98 μM in MT-4 cells): inactive; activity against the replication of SIV (MAC251) ([10]; at 98 μM in MT-4 cells): inactive
11 | Dextran sulfate [reference compound] |  |  |  |  |  |  |  |  | IC50 ([11]; template-primer poly(A).oligo(dT), read-out: IC50 Poly(A).oligo(dT)): 22 ± 8.8 µM; IC50 ([11]; template-primer poly(C).oligo(dG), read-out: IC50 poly(C).oligo(dG)): 7.3 ± 3.2 µM
